Source: patent US9340577B2, “HLA binding motifs and peptides and their uses” (priority 1992, dated 2016)
pIC50: −log10 of the molar value. No end group written: not given here.

Tests used:
Test in all cases: biochemical
DRB4*0101 = DRB4*0101 (Homo sapiens, UniProt P01903+P13762, G164S); type: binding
DRB1*0405 = DRB1*0405 (Homo sapiens, UniProt P01903+P01911, A100R/A169T/D86S/F76Y/I96L/K127E/L162R/M171V/N62H/P40V/Q125Y/R42H/S133A/S149N/S66Y/V115G/V209L/W38E); type: binding
DR1 (DRB1*0101) = DR1 (DRB1*0101) (Homo sapiens, UniProt P01903+P01911, A100R/D57E/F55L/F60I/F76Y/I96L/L162R/M171V/P40L/Q125E/R42F/V115G/Y59C); type: binding
DRB1*0901 = DRB1*0901 (Homo sapiens, UniProt P01903+P01911, A100R/A103E/D57H/D86V/F55Y/F60I/F76Y/I96F/K127E/L162R/M171V/P40D/Q125H/Q99R/R33Q/R42F/S133A/S66N/T210M/V115G/W38K/Y107V/Y59G/Y89S); type: binding
DRB1*1201 = DRB1*1201 (Homo sapiens, UniProt P01903+P01911, A100R/A169T/D57E/D86V/F55L/H45Y/K41T/L162R/M171V/P40S/Q125H/Q178H/Q39Y/Q99D/R42G/S66L/T262R/V114A/V67L/W38E/Y59H/Y61H/Y89S); type: binding
DRB1*0802 = DRB1*0802 (Homo sapiens, UniProt P01903+P01911, A100R/A103L/A169T/F76Y/H45Y/I96F/K41T/L162R/M171V/P40S/Q125H/Q178H/Q39Y/Q99D/R218S/R42G/S66Y/V115G/W38E); type: binding
DRB1*1302 = DRB1*1302 (Homo sapiens, UniProt P01903+P01911, A100E/A169T/K41T/L162R/M171V/P40S/Q125H/Q178H/Q39Y/Q99D/R42S/S66N/T262R/V115G/W38E/Y61H); type: binding
Sequence of DRB1*1302 (P01903 26-254 limits assumed, other chains not shown): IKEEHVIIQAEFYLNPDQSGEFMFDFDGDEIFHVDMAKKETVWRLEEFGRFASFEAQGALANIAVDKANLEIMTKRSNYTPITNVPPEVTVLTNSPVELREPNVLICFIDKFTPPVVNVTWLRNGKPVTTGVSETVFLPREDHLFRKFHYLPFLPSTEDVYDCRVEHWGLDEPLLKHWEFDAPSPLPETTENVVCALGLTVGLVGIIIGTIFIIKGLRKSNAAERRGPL

DRB1*1101 = DRB1*1101 (Homo sapiens, UniProt P01903+P01911, A100R/A169T/A87E/I96F/K41T/L162R/M171V/P40S/Q125H/Q178H/Q39Y/Q99D/R42S/S66Y/T262R/V115G/W38E); settings: Binding affinity DRB1 *1101
Sequence of DRB1*1101 (P01903 26-254 limits assumed, other chains not shown): as above

DRB5*0101 = DRB5*0101 (Homo sapiens, UniProt P01903+Q30154); settings: Binding affinity DRB5 *0101
DR4w4 (DRB1*0401) = DR4w4 (DRB1*0401) (Homo sapiens, UniProt P01903+P01911, A100K/A169T/F76Y/I96L/K127E/L162R/M171V/N62H/P40V/Q125Y/R42H/S133A/S149N/S66Y/V115G/V209L/W38E); type: binding
DRB1*0301 = DRB1*0301 (Homo sapiens, UniProt P01903+P01911, A100K/A102G/A103R/A169T/F55Y/I96L/K41T/L162R/M171V/P40S/Q125H/Q178H/Q39Y/R42S/S66N/T106N/T262R/W38E/Y61H); type: binding
Sequence of DRB1*0301 (P01903 26-254 limits assumed, other chains not shown): as above

DRB1*1501 = DRB1*1501 (Homo sapiens, UniProt P01903+P01911); type: binding
DR7 (DRB1*0701) = DR7 (DRB1*0701) (Homo sapiens, UniProt P01903+P01911, A100R/A102G/A103Q/D57E/D86V/E43K/F76Y/K127E/L162R/M171V/P40G/Q125H/Q99D/R33Q/R42Y/R54Q/S133A/S66F/T210M/V115G/Y107V/Y59L/Y89S); type: binding

Compound | pIC50 (DRB4*0101) | pIC50 (DRB1*0405) | pIC50 (DR1 (DRB1*0101)) | pIC50 (DRB1*0901) | pIC50 (DRB1*1201) | pIC50 (DRB1*0802) | pIC50 (DRB1*1302) | pIC50 (DRB1*1101) | pIC50 (DRB5*0101) | pIC50 (DR4w4 (DRB1*0401)) | pIC50 (DRB1*0301) | pIC50 (DRB1*1501) | pIC50 (DR7 (DRB1*0701))
VTAIFGVNPTIAEGF [Peptide 89.0023] | 6.26 | 7.00 | 5.94 | 5.54 | 5.18 | < 4.70 | 6.71 | < 4.70 | < 4.70 | 6.08 | 5.47 | 5.24 | –
CC(C)C[C@H](NC(=O)[C@H](CCC(N)=O)NC(=O)[C@H](CCCCN)NC(=O)[C@@H](NC(=O)[C@H](CC(C)C)NC(=O)[C@H](CCC(N)=O)NC(=O)[C@@H](NC(=O)[C@H](C)NC(=O)[C@H](CO)NC(=O)[C@@H](NC(=O)[C@@H](NC(=O)[C@H](CC(=O)O)NC(=O)[C@@H](N)CC(=O)O)[C@@H](C)O)C(C)C)[C@@H](C)O)C(C)C)C(=O)N[C@@H](CCC(N)=O)C(=O)N[C@@H](Cc1c[nH]cn1)C(=O)O [Peptide 89.0162] | 6.89 | 6.17 | – | 5.71 | 6.56 | – | 7.14 | 6.03 | 6.24 | 7.00 | 6.62 | 6.22 | –
CC[C@H](C)[C@H](N)C(=O)N[C@@H](CCC(=O)O)C(=O)N[C@@H](Cc1ccccc1)C(=O)N[C@H](C(=O)N[C@H](C(=O)N[C@@H](Cc1ccccc1)C(=O)N[C@@H](CC(C)C)C(=O)NCC(=O)N[C@@H](C)C(=O)N[C@@H](CC(C)C)C(=O)N[C@@H](CCCCN)C(=O)N[C@@H](CO)C(=O)N[C@@H](Cc1ccccc1)C(=O)N[C@@H](CC(C)C)C(=O)N[C@@H](CCCCN)C(=O)O)[C@@H](C)O)[C@@H](C)CC [Peptide 89.0033] | 7.36 | 5.78 | 8.07 | – | 6.39 | – | < 4.70 | – | 7.47 | 7.13 | 5.64 | 7.11 | 6.39
CC[C@H](C)[C@H](NC(=O)[C@H](Cc1c[nH]c2ccccc12)NC(=O)[C@H](CCC(=O)O)NC(=O)[C@@H]1CCCN1)C(=O)N[C@@H](CCC(=O)O)C(=O)N[C@@H](CCCNC(=N)N)C(=O)N[C@@H](CCC(N)=O)C(=O)N[C@H](C(=O)N[C@H](C(=O)N[C@@H](CC(C)C)C(=O)N[C@@H](CCC(N)=O)C(=O)N[C@@H](Cc1c[nH]cn1)C(=O)N[C@@H](CO)C(=O)N[C@@H](Cc1ccccc1)C(=O)N[C@@H](CC(N)=O)C(=O)O)C(C)C)[C@@H](C)O [Peptide 89.0049] | 8.70 | 6.36 | 5.28 | 5.34 | 5.10 | 6.15 | 6.03 | 6.40 | < 4.70 | 7.74 | 6.68 | – | 5.54
FKYFKEDAAKYSKTQ [Peptide 90.0206] | < 4.70 | 5.16 | 7.20 | 5.77 | 6.40 | 6.08 | 5.77 | 6.52 | – | 7.72 | 6.35 | 6.06 | –
DNDIVDDSEIAYKYA [Peptide 90.0037] | < 4.70 | < 4.70 | < 4.70 | < 4.70 | 5.28 | < 4.70 | < 4.70 | < 4.70 | < 4.70 | 5.34 | 7.55 | – | < 4.70
EDEIDTDLDGFIDDS [Peptide 90.0126] | 6.08 | 5.99 | 6.49 | – | 6.86 | – | 7.17 | < 4.70 | – | < 4.70 | 6.89 | 6.57 | –
EIYIIEEDTCTMVTG [Peptide 90.0203] | 5.76 | 5.51 | 5.87 | < 4.70 | < 4.70 | < 4.70 | 6.24 | – | < 4.70 | 6.59 | 6.56 | 5.19 | –
DNELTDDSDIAYYYA [Peptide 90.0085] | < 4.70 | < 4.70 | < 4.70 | < 4.70 | < 4.70 | < 4.70 | < 4.70 | < 4.70 | < 4.70 | < 4.70 | 7.01 | – | < 4.70
KNRLTVAKLMSNLLS [Peptide 89.0064] | 7.60 | 7.92 | 8.25 | 5.57 | 7.05 | 6.24 | 7.85 | 5.80 | – | 7.68 | 5.01 | – | 8.55
YFKYFKEDAAKYSKT [Peptide 90.0205] | < 4.70 | < 4.70 | – | – | 5.09 | 5.22 | < 4.70 | 5.72 | 5.33 | 7.15 | 6.32 | 5.41 | 5.44
SNLLSIPETCMVIEP [Peptide 89.0067] | 6.02 | 7.74 | 6.46 | 5.88 | 5.41 | 4.77 | 6.46 | 4.89 | < 4.70 | 6.49 | < 4.70 | 6.29 | –
KVAMLDDATHTCWTY [Peptide 90.0105] | 7.68 | 6.55 | 6.60 | < 4.70 | 5.03 | 5.09 | < 4.70 | 5.65 | < 4.70 | 7.47 | 6.39 | 5.65 | –
ENSIQADTEAARALF [Peptide 90.0078] | < 4.70 | < 4.70 | 5.41 | < 4.70 | 5.13 | < 4.70 | < 4.70 | < 4.70 | < 4.70 | < 4.70 | 6.21 | < 4.70 | –
YKTLFVDVTSTYHWT [Peptide 90.0241] | < 4.70 | 6.26 | 5.39 | 5.65 | 5.41 | 4.85 | 7.15 | 5.38 | 5.26 | 7.12 | 7.25 | – | 6.19
IHFLQGAIISFVNSN [Peptide 89.0089] | 6.57 | 5.58 | 8.38 | – | 7.15 | 5.72 | 6.35 | – | < 4.70 | 6.30 | < 4.70 | 7.27 | 5.99
DNDVMDDSEIAYKYA [Peptide 90.0069] | < 4.70 | 5.00 | < 4.70 | < 4.70 | 4.90 | < 4.70 | < 4.70 | < 4.70 | < 4.70 | 5.43 | 7.28 | 5.08 | –
LKVLIKQHSLYTHLQ [Peptide 89.0061] | 7.96 | 6.16 | 8.37 | – | 7.48 | 7.24 | 7.52 | 7.37 | – | 7.77 | 5.74 | 7.74 | 6.35
